One series relates to Jurkat T cells. Briefly: Antiproliferative screening at 10 μM, MTS assay. The class given is cell-based, human. The conditions noted are these: Homo sapiens; Jurkat T cells, 10 μM, 72 h after treatment, MTS; mean of three independent experiments; read-out: Cell viability (%). How it is done:
The Jurkat T cell line was chosen for its reliability as a model for chemotherapeutic studies, particularly in T-cell leukemia.[13]
An MTS (3-(4,5-dimethylthiazol-2-yl)-5-(3-carboxymethoxyphenyl)-2-(4-sulfophenyl)-2H-tetrazolium inner salt) assay[20] was used to assess the leukemic cell viability. […] A total of 2 × 10^3 cells per 100 μL cell culture media were seeded into each well of a 96-well plate and incubated for 24 h. Then, tested compounds or reference drugs [6-mercaptopurine (Merck Millipore, Germany), methotrexate (Merck Millipore, Germany) and cytarabine (Merck Millipore, Germany)] were added, followed by incubation for 72 h. […] The absorbance in each well was measured at 490 nm using a microplate reader (Tecan NanoQuant Infinite M200 Pro, Austria). The percentage of cell viability was estimated by comparing absorbance in wells with the treated and untreated (vehicle control) cells using the following formula: ODtreated/ODuntreated × 100%. All experiments were performed in triplicate and repeated in three independent experiments. The GI50 values were calculated using sigmoidal concentration-response curves generated by the GraphPad Prism 8 program.[21]
Background: Tetrazolium assays rely on reduction of a dye to a coloured formazan, in cell work by metabolically active cells.

Structures are written as SMILES.

On to `Nc1nc(-c2cccc([N+](=O)[O-])c2)nc(N2CCCCC2)n1` [9{2,10}, 6-(3-Nitrophenyl)-4-piperidino-1,3,5-triazine-2-amine], for which the melting point was 158 to 159 °C. The viability at 10 µM in the series on Jurkat T cells is 100%.

In the case of `Cc1cccc(-c2nc(N)nc(N3CCN(C)CC3)n2)c1` [9{4,5}, 6-(3-Methylphenyl)-4-(4-methylpiperazino)-1,3,5-triazine-2-amine], the melting point lay within 194 to 195 °C. The viability at 10 µM in the series with Jurkat T cells was 95%.

Molecule `COc1cc(-c2nc(N)nc(N3CCc4ccccc4C3)n2)cc(OC)c1OC` [9{6,17}, 6-(3,4,5-Trimethoxyphenyl)-4-(3,4-dihydroisoquinolin-2(1H)-yl)-1,3,5-triazine-2-amine] came in with a melting point of 198 to 199 °C. Moreover, the viability at 10 µM with Jurkat T cells came to 96%.

`Nc1nc(-c2cccs2)nc(N2CCCC2)n1` [9{1,18}, 4-Pyrrolidino-6-(2-thienyl)-1,3,5-triazine-2-amine]: the melting point was in the range of 210 to 211 °C. Also, in the series on Jurkat T cells, the viability at 10 µM is 100%.

`Nc1nc(-c2cccc(Oc3ccccc3)c2)nc(N2CCCC2)n1` [9{1,13}, 6-(3-Phenoxyphenyl)-4-pyrrolidino-1,3,5-triazine-2-amine] yielded a melting point of 170 to 171 °C. Moreover, in the series with Jurkat T cells, the viability at 10 µM was 87%.

As for `Cc1ccc(-c2nc(N)nc(N3CCN(C)CC3)n2)cc1` [9{4,6}, 6-(4-Methylphenyl)-4-(4-methylpiperazino)-1,3,5-triazine-2-amine], the melting point fell in the range of 220 to 221 °C. Further, in the series with Jurkat T cells, the viability at 10 µM worked out at 100%.

`CC1CCN(c2nc(N)nc(-c3cccc(F)c3)n2)CC1` [9{3,2}, 6-(3-Fluorophenyl)-4-(4-methylpiperidino)-1,3,5-triazine-2-amine]: the melting point lay within 125 to 126 °C. The viability at 10 µM with Jurkat T cells was 61%.

Turning to `CN(C)c1ccc(-c2nc(N)nc(N3CCc4ccccc4C3)n2)cc1` [9{6,8}, 6-[4-(N,N-Dimethylamino)phenyl]-4-(3,4-dihydroisoquinolin-2(1H)-yl)-1,3,5-triazine-2-amine], the melting point lay in the range of 201 to 202 °C. Also, the viability at 10 µM in the series with Jurkat T cells was 100%.

In the case of `CN1CCN(c2nc(N)nc(-c3ccc(OC(F)(F)F)cc3)n2)CC1` [9{4,12}, 6-[4-(Trifluoromethoxy)phenyl]-4-(4-methylpiperazino)-1,3,5-triazine-2-amine], the melting point was 194 to 195 °C. The viability at 10 µM with Jurkat T cells is 100%.

For `Nc1nc(-c2cccc(F)c2)nc(N2CCCCC2)n1` [9{2,2}, 6-(3-Fluorophenyl)-4-piperidino-1,3,5-triazine-2-amine], the melting point was in the range of 138 to 139 °C. Moreover, the viability at 10 µM in the series with Jurkat T cells stood at 62%.

`CN1CCN(c2nc(N)nc(-c3cccc(F)c3)n2)CC1` [9{4,2}, 6-(3-Fluorophenyl)-4-(4-methylpiperazino)-1,3,5-triazine-2-amine]: the melting point was in the range of 187 to 188 °C. Besides, in the series with Jurkat T cells, the viability at 10 µM is 95%.

Consider `Nc1nc(-c2ccc(OCc3ccccc3)cc2)nc(N2CCc3ccccc3C2)n1` [9{6,15}, 6-(4-(Benzyloxy)phenyl)-4-(3,4-dihydroisoquinolin-2(1H)-yl)-1,3,5-triazine-2-amine], for which the melting point fell in the range of 143 to 144 °C. The viability at 10 µM in the series with Jurkat T cells stood at 59%.

`CC(C)(C)c1ccc(-c2nc(N)nc(N3CCCC3)n2)cc1` [9{1,7}, 6-[4-(tert-Butyl)phenyl]-4-pyrrolidino-1,3,5-triazine-2-amine] gave a melting point of 196 to 197 °C. Further, the viability at 10 µM in the series with Jurkat T cells is 88%.

For the molecule `COc1ccc(-c2nc(N)nc(N3CCc4ccccc43)n2)cc1OC` [9{7,16}, 6-(3,4-Dimethoxyphenyl)-4-(indolin-1-yl)-1,3,5-triazine-2-amine], the melting point lay within 183 to 184 °C. Further, the viability at 10 µM with Jurkat T cells was 67%.

Take `COc1ccc(-c2nc(N)nc(N3CCCC3)n2)cc1` [9{1,9}, 6-(4-Methoxyphenyl)-4-pyrrolidino-1,3,5-triazine-2-amine]: the melting point lay in the range of 208 to 209 °C. In the series on Jurkat T cells, the viability at 10 µM is 100%.

In turn, `Nc1nc(-c2cccc([N+](=O)[O-])c2)nc(N2CCCC2)n1` [9{1,10}, 6-(3-Nitrophenyl)-4-pyrrolidino-1,3,5-triazine-2-amine] showed a melting point of 207 to 208 °C. The viability at 10 µM with Jurkat T cells was 94%.

Take `Cc1cccc(-c2nc(N)nc(N3CCCC3)n2)c1` [9{1,5}, 6-(3-Methylphenyl)-4-pyrrolidino-1,3,5-triazine-2-amine]: the melting point was 185 to 186 °C. For the same molecule, the viability at 10 µM in the series on Jurkat T cells stood at 82%.

In turn, `Nc1nc(-c2ccc(OC(F)(F)F)cc2)nc(N2CCCC2)n1` [9{1,12}, 6-[4-(Trifluoromethoxy)phenyl]-4-pyrrolidino-1,3,5-triazine-2-amine] had a melting point of 149 to 150 °C. The viability at 10 µM in the series on Jurkat T cells came to 96%.

`CC1CCN(c2nc(N)nc(-c3ccc(Cl)cc3)n2)CC1` [9{3,4}, 6-(4-Chlorophenyl)-4-(4-methylpiperidino)-1,3,5-triazine-2-amine] registered a melting point of 168 to 169 °C. Moreover, in the series with Jurkat T cells, the viability at 10 µM stood at 79%.

In the case of `Cc1ccc(-c2nc(N)nc(N3CCCC3)n2)cc1` [9{1,6}, 6-(4-Methylphenyl)-4-pyrrolidino-1,3,5-triazine-2-amine], the melting point lay within 229 to 230 °C. In the series on Jurkat T cells, the viability at 10 µM came to 100%.

With `CN1CCN(c2nc(N)nc(-c3ccc(C(F)(F)F)cc3)n2)CC1` [9{4,11}, 6-[4-(Trifluoromethyl)phenyl]-4-(4-methylpiperazino)-1,3,5-triazine-2-amine], the melting point lay within 194 to 195 °C. In addition, the viability at 10 µM in the series with Jurkat T cells stood at 100%.

On to `COc1ccc(-c2nc(N)nc(N3CCCC3)n2)cc1OC` [9{1,16}, 6-(3,4-Dimethoxyphenyl)-4-pyrrolidino-1,3,5-triazine-2-amine], for which the melting point is 217 to 218 °C. Moreover, the viability at 10 µM in the series on Jurkat T cells was found to be 95%.

`CN1CCN(c2nc(N)nc(-c3cccc(OCc4ccccc4)c3)n2)CC1` [9{4,14}, 6-[3-(Benzyloxy)phenyl]-4-(4-methylpiperazino)-1,3,5-triazine-2-amine] returned a melting point of 117 to 118 °C. Further, the viability at 10 µM in the series on Jurkat T cells came to 73%.

Take `COc1ccc(-c2nc(N)nc(N3CCc4ccccc43)n2)cc1` [9{7,9}, 6-(4-Methoxyphenyl)-4-(indolin-1-yl)-1,3,5-triazine-2-amine]: the melting point was in the range of 219 to 220 °C. The viability at 10 µM in the series with Jurkat T cells stood at 85%.

`Nc1nc(-c2ccc(F)cc2)nc(N2CCCC2)n1` [9{1,3}, 6-(4-Fluorophenyl)-4-pyrrolidino-1,3,5-triazine-2-amine] gave a melting point of 202 to 203 °C. The viability at 10 µM with Jurkat T cells amounted to 97%.

The molecule `Nc1nc(-c2ccc(OC(F)(F)F)cc2)nc(N2CCc3ccccc32)n1` [9{7,12}, 6-[4-(Trifluoromethoxy)phenyl]-4-(indolin-1-yl)-1,3,5-triazine-2-amine] gave a melting point of 195 to 196 °C. Further, the viability at 10 µM in the series with Jurkat T cells came to 73%.

In turn, `CN1CCN(c2nc(N)nc(-c3ccc(F)cc3)n2)CC1` [9{4,3}, 6-(4-Fluorophenyl)-4-(4-methylpiperazino)-1,3,5-triazine-2-amine] yielded a melting point of 192 to 193 °C. Moreover, in the series on Jurkat T cells, the viability at 10 µM amounted to 100%.

The molecule `COc1ccc(-c2nc(N)nc(N3CCN(C)CC3)n2)cc1OC` [9{4,16}, 6-(3,4-Dimethoxyphenyl)-4-(4-methylpiperazino)-1,3,5-triazine-2-amine] showed a melting point of 223 to 224 °C. Besides, the viability at 10 µM with Jurkat T cells came to 100%.

In turn, `COc1cc(-c2nc(N)nc(N3CCN(C)CC3)n2)cc(OC)c1OC` [9{4,17}, 6-(3,4,5-Trimethoxyphenyl)-4-(4-methylpiperazino)-1,3,5-triazine-2-amine] came in with a melting point of 234 to 235 °C. Besides, the viability at 10 µM with Jurkat T cells is 100%.

Molecule `COc1ccc(-c2nc(N)nc(N3CCCCC3)n2)cc1` [9{2,9}, 6-(4-Methoxyphenyl)-4-piperidino-1,3,5-triazine-2-amine] returned a melting point of 178 to 179 °C. For the same molecule, the viability at 10 µM in the series with Jurkat T cells turned out to be 100%.

`Nc1nc(-c2ccc(C(F)(F)F)cc2)nc(N2CCCC2)n1` [9{1,11}, 6-[4-(Trifluoromethyl)phenyl]-4-pyrrolidino-1,3,5-triazine-2-amine]: the melting point was 186 to 187 °C. The viability at 10 µM in the series on Jurkat T cells is 78%.

What is called melting point is the temperature, or range, at which the solid turns liquid. Usually viability stands for the share of living cells, or the viability signal relative to a control.
